Experimental data: the NIST ThermoML archive (doi:10.1021/je300938w)

How the values were obtained:
[1] = wn = mass fraction of the nth substance listed; conditions: 101 kPa, Liquid; for viscosity: Concentric cylinders viscometry; for mass density: Vibrating tube method
[2] = refractive index (Na D-line) (dimensionless); wn = mass fraction of the nth substance listed; conditions: 101 kPa, Liquid, Standard Abbe refractometry

CC(O)CN(CC(C)O)CC(C)O (stereo not given) [triisopropanolamine] + O
Conditions	mass density, [1] [kg/m3]	refractive index, [2]	viscosity, [1] [mPa·s]
298.15 K, w1 = 0.05	1000.88	1.34069	1.083
298.15 K, w1 = 0.1	1004.3	1.34815	1.36
298.15 K, w1 = 0.15	1007.92	1.35565	1.71
298.15 K, w1 = 0.2	1011.66	1.36317	2.173
298.15 K, w1 = 0.25	1015.04	1.37063	2.857
303.15 K, w1 = 0.05	999.387	1.34001	0.9842
303.15 K, w1 = 0.1	1002.67	1.34737	1.198
303.15 K, w1 = 0.15	1006.1	1.35487	1.486
303.15 K, w1 = 0.2	1009.61	1.36227	1.859
303.15 K, w1 = 0.25	1012.73	1.36979	2.396
308.15 K, w1 = 0.05	997.679	1.33922	0.8883
308.15 K, w1 = 0.1	1000.83	1.34656	1.068
308.15 K, w1 = 0.15	1004.08	1.35393	1.309
308.15 K, w1 = 0.2	1007.37	1.36133	1.612
308.15 K, w1 = 0.25	1010.26	1.36869	2.051
313.15 K, w1 = 0.05	995.768	1.33853	0.8034
313.15 K, w1 = 0.1	998.785	1.34572	0.9574
313.15 K, w1 = 0.15	1001.88	1.35309	1.159
313.15 K, w1 = 0.2	1004.97	1.36039	1.418
313.15 K, w1 = 0.25	1007.64	1.36764	1.774
318.15 K, w1 = 0.05	993.671	1.33769	0.7315
318.15 K, w1 = 0.1	996.561	1.34484	0.8658
318.15 K, w1 = 0.15	999.498	1.35209	1.038
318.15 K, w1 = 0.2	1002.41	1.35933	1.257
318.15 K, w1 = 0.25	1004.88	1.36653	1.553
323.15 K, w1 = 0.05	991.401	1.3368	0.6696
323.15 K, w1 = 0.1	994.168	1.34387	0.7874
323.15 K, w1 = 0.15	996.957	1.35104	0.9361
323.15 K, w1 = 0.2	999.698	1.35818	1.125
323.15 K, w1 = 0.25	1002	1.36532	1.373
328.15 K, w1 = 0.05	988.96	1.33565	0.6164
328.15 K, w1 = 0.1	991.613	1.34287	0.7208
328.15 K, w1 = 0.15	994.263	1.34999	0.8494
328.15 K, w1 = 0.2	996.847	1.35718	1.013
328.15 K, w1 = 0.25	998.98	1.36417	1.224
333.15 K, w1 = 0.05	986.362	1.33481	0.5719
333.15 K, w1 = 0.1	988.905	1.34176	0.6624
333.15 K, w1 = 0.15	991.422	1.34883	0.7754
333.15 K, w1 = 0.2	993.857	1.35587	0.9186
333.15 K, w1 = 0.25	995.844	1.36291	1.104
338.15 K, w1 = 0.05	983.585	1.3337	0.535
338.15 K, w1 = 0.1	985.961	1.34063	0.6134
338.15 K, w1 = 0.15	988.426	1.34762	0.7114
338.15 K, w1 = 0.2	990.739	1.35461	0.8381
338.15 K, w1 = 0.25	992.589	1.36154	0.9991
343.15 K, w1 = 0.05	980.297	1.33265	0.5064
343.15 K, w1 = 0.1	982.83	1.33943	0.57
343.15 K, w1 = 0.15	985.312	1.34641	0.6596
343.15 K, w1 = 0.2	987.395	1.35319	0.7694
343.15 K, w1 = 0.25	989.222	1.36012	0.9113
